From PubChem BioAssay (NCI)
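Values below derive from 48-hour exposures of cells grown in 96-well plates, with endpoints linearly interpolated between the two concentrations bracketing the appropriate inhibition level. GI50 = concentration required for 50% inhibition of growth. TGI denotes the concentration required for complete inhibition of growth.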

Legend:
Test in all cases: DTP human tumour cell line panel, 48 h
CAKI-1 renal = test system: CAKI-1 renal
MALME-3M melanoma = test system: MALME-3M melanoma
UACC-62 melanoma = test system: UACC-62 melanoma
MDA-MB-435 = test system: MDA-MB-435
KM12 colon = test system: KM12 colon
TK-10 renal = test system: TK-10 renal
RPMI-8226 leukemia = test system: RPMI-8226 leukemia
NCI-H23 lung = test system: NCI-H23 lung
HCC-2998 colon = test system: HCC-2998 colon
U251 CNS = test system: U251 CNS
BT-549 breast = test system: BT-549 breast
OVCAR-8 ovarian = test system: OVCAR-8 ovarian
NCI/ADR-RES ovarian = test system: NCI/ADR-RES ovarian
MDA-MB-231 breast = test system: MDA-MB-231 breast
PC-3 prostate = test system: PC-3 prostate
HCT-15 colon = test system: HCT-15 colon
HCT-116 colon = test system: HCT-116 colon
SNB-75 CNS = test system: SNB-75 CNS
HOP-92 NSCLC = test system: HOP-92 NSCLC
HOP-62 NSCLC = test system: HOP-62 NSCLC
EKVX NSCLC = test system: EKVX NSCLC
SF-295 CNS = test system: SF-295 CNS
HS 578T breast = test system: HS 578T breast
MOLT-4 leukemia = test system: MOLT-4 leukemia
SN12C renal = test system: SN12C renal
A549 NSCLC = test system: A549 NSCLC
CCRF-CEM leukemia = test system: CCRF-CEM leukemia
NCI-H460 lung = test system: NCI-H460 lung
SF-539 CNS = test system: SF-539 CNS
SF-268 CNS = test system: SF-268 CNS
OVCAR-4 ovarian = test system: OVCAR-4 ovarian
NCI-H226 lung = test system: NCI-H226 lung
NCI-H522 lung = test system: NCI-H522 lung
MDA-MB-468 breast = test system: MDA-MB-468 breast
SK-MEL-28 melanoma = test system: SK-MEL-28 melanoma
SK-MEL-2 melanoma = test system: SK-MEL-2 melanoma
786-0 renal = test system: 786-0 renal
IGROV1 ovarian = test system: IGROV1 ovarian
COLO 205 colon = test system: COLO 205 colon
A498 renal = test system: A498 renal
DU-145 prostate = test system: DU-145 prostate
OVCAR-5 ovarian = test system: OVCAR-5 ovarian
K-562 leukemia = test system: K-562 leukemia
SK-MEL-5 melanoma = test system: SK-MEL-5 melanoma
M14 melanoma = test system: M14 melanoma
HL-60(TB) leukemia = test system: HL-60(TB) leukemia
HT29 colon = test system: HT29 colon
RXF 393 renal = test system: RXF 393 renal
T-47D breast = test system: T-47D breast
OVCAR-3 ovarian = test system: OVCAR-3 ovarian
SK-OV-3 ovarian = test system: SK-OV-3 ovarian
SR leukemia = test system: SR leukemia
MCF7 breast = test system: MCF7 breast
UO-31 renal = test system: UO-31 renal
UACC-257 melanoma = test system: UACC-257 melanoma
SNB-19 CNS = test system: SNB-19 CNS
ACHN renal = test system: ACHN renal

CCCCCc1ccc(S(=O)(=O)Nc2cc(-c3csc(N(C)C(C)=O)n3)ccc2N2CCN(C)CC2)cc1
GI50 (CAKI-1 renal): 1.86 µM | TGI (CAKI-1 renal): 13.5 µM | GI50 (MALME-3M melanoma): 5.26 µM | TGI (MALME-3M melanoma): 19.7 µM | GI50 (UACC-62 melanoma): 6.2 µM | TGI (UACC-62 melanoma): 12.6 µM | GI50 (MDA-MB-435): 2.02 µM | TGI (MDA-MB-435): > 35.5 µM | GI50 (KM12 colon): 3.61 µM | TGI (KM12 colon): > 35.5 µM | GI50 (TK-10 renal): 7.43 µM | TGI (TK-10 renal): 19.9 µM | GI50 (RPMI-8226 leukemia): 1.32 µM | TGI (RPMI-8226 leukemia): > 35.5 µM | GI50 (NCI-H23 lung): 7.49 µM | TGI (NCI-H23 lung): 31.7 µM | GI50 (HCC-2998 colon): 1.25 µM | TGI (HCC-2998 colon): 8.55 µM | GI50 (U251 CNS): 7.43 µM | TGI (U251 CNS): > 35.5 µM | GI50 (BT-549 breast): 9.72 µM | TGI (BT-549 breast): > 35.5 µM | GI50 (OVCAR-8 ovarian): 10.2 µM | TGI (OVCAR-8 ovarian): > 35.5 µM | GI50 (NCI/ADR-RES ovarian): 5.75 µM | TGI (NCI/ADR-RES ovarian): > 35.5 µM | GI50 (MDA-MB-231 breast): 1.81 µM | TGI (MDA-MB-231 breast): 8.34 µM | GI50 (PC-3 prostate): 2.2 µM | TGI (PC-3 prostate): > 35.5 µM | GI50 (HCT-15 colon): 1.04 µM | TGI (HCT-15 colon): > 35.5 µM | GI50 (HCT-116 colon): 1.07 µM | TGI (HCT-116 colon): 3.67 µM | GI50 (SNB-75 CNS): 3.6 µM | TGI (SNB-75 CNS): 15 µM | GI50 (HOP-92 NSCLC): 1.71 µM | TGI (HOP-92 NSCLC): 15.4 µM | GI50 (HOP-62 NSCLC): 7.85 µM | TGI (HOP-62 NSCLC): > 35.5 µM | GI50 (EKVX NSCLC): 15.2 µM | TGI (EKVX NSCLC): > 35.5 µM | GI50 (SF-295 CNS): 0.754 µM | TGI (SF-295 CNS): 2.12 µM | GI50 (HS 578T breast): 5.25 µM | TGI (HS 578T breast): 35.1 µM | GI50 (MOLT-4 leukemia): 1.4 µM | TGI (MOLT-4 leukemia): > 35.5 µM | GI50 (SN12C renal): 3.73 µM | TGI (SN12C renal): 28.1 µM | GI50 (A549 NSCLC): 3.34 µM | TGI (A549 NSCLC): > 35.5 µM | GI50 (CCRF-CEM leukemia): 1.02 µM | TGI (CCRF-CEM leukemia): 3.71 µM | TGI (NCI-H460 lung): 11.1 µM | GI50 (SF-539 CNS): 1.21 µM | TGI (SF-539 CNS): 4.59 µM | GI50 (SF-268 CNS): 7.01 µM | TGI (SF-268 CNS): > 35.5 µM | GI50 (OVCAR-4 ovarian): 2.22 µM | TGI (OVCAR-4 ovarian): 29.8 µM | GI50 (NCI-H226 lung): 8.43 µM | TGI (NCI-H226 lung): 33.2 µM | GI50 (NCI-H522 lung): 5.51 µM | TGI (NCI-H522 lung): 14.7 µM | GI50 (MDA-MB-468 breast): 1.62 µM | TGI (MDA-MB-468 breast): 7.5 µM | GI50 (SK-MEL-28 melanoma): 6.76 µM | TGI (SK-MEL-28 melanoma): 19.7 µM | GI50 (SK-MEL-2 melanoma): 8.64 µM | TGI (SK-MEL-2 melanoma): 30.2 µM | GI50 (786-0 renal): 2.29 µM | TGI (786-0 renal): 30.8 µM | GI50 (IGROV1 ovarian): 9.77 µM | TGI (IGROV1 ovarian): > 35.5 µM | GI50 (COLO 205 colon): 0.626 µM | TGI (COLO 205 colon): 1.27 µM | GI50 (A498 renal): 9.21 µM | TGI (A498 renal): > 35.5 µM | GI50 (DU-145 prostate): 3.93 µM | TGI (DU-145 prostate): > 35.5 µM | GI50 (OVCAR-5 ovarian): 16.5 µM | TGI (OVCAR-5 ovarian): > 35.5 µM | GI50 (K-562 leukemia): 1.01 µM | TGI (K-562 leukemia): > 35.5 µM | GI50 (SK-MEL-5 melanoma): 4.47 µM | TGI (SK-MEL-5 melanoma): 16.9 µM | GI50 (M14 melanoma): 3.93 µM | TGI (M14 melanoma): > 35.5 µM | GI50 (HL-60(TB) leukemia): 0.807 µM | TGI (HL-60(TB) leukemia): 2.4 µM | GI50 (HT29 colon): 1.13 µM | TGI (HT29 colon): 3.66 µM | GI50 (RXF 393 renal): 2.11 µM | TGI (RXF 393 renal): 17.9 µM | GI50 (T-47D breast): 2.95 µM | TGI (T-47D breast): > 35.5 µM | GI50 (OVCAR-3 ovarian): 1.12 µM | TGI (OVCAR-3 ovarian): 12.8 µM | GI50 (SK-OV-3 ovarian): 7.29 µM | TGI (SK-OV-3 ovarian): 17.5 µM | GI50 (SR leukemia): 1.02 µM | TGI (SR leukemia): 3.6 µM | GI50 (MCF7 breast): 0.983 µM | TGI (MCF7 breast): 4.09 µM | GI50 (UO-31 renal): 5.42 µM | TGI (UO-31 renal): > 35.5 µM | GI50 (UACC-257 melanoma): 6.59 µM | TGI (UACC-257 melanoma): 26.9 µM | GI50 (SNB-19 CNS): 10.9 µM | TGI (SNB-19 CNS): > 35.5 µM | GI50 (ACHN renal): 4.66 µM | TGI (ACHN renal): > 35.5 µM
